Test results reported in US20230295162A1 (EÖTVÖS LORÁND TUDOMÁNYEGYETEM, priority 2020, published 2023).

Legend:
[1] = tested on: PANC-1 (human pancreatic carcinoma) cells; experiment: Impedance-based viability assay (xCELLigence SP), long treatment; type: cell-based; conditions: 72 h, read-out: cytotoxicity expressed in IC50, PANC-1
Source text: (Gibco®/Invitrogen Corporation, New York, NY, USA).
Data obtained from each experiment represent mathematical averages.

[2] = tested on: DU 145 (prostate, carcinoma) cells; experiment: Cell viability assay, CellTiter-Glo (Example 21); type: cell-based, human; conditions: 72 h
Summary of the method: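 DU 145 prostate carcinoma cells were plated at 1000 cells/well in white flat-bottom 96 well plates and exposed to compound. Viability was then determined by CellTiter-Glo® luminescence on a BioTek Synergy 2 reader, and dose-response curves were fitted in GraphPad Prism 8.4.2 with a four-parameter variable-slope non-linear regression.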

[3] = tested on: FaDu (pharynx, squamous cell carcinoma) cells; experiment: Cell viability assay, CellTiter-Glo (Example 21); type: cell-based, human; conditions: 72 h treatment
Summary of the method: (§1)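 Cells were seeded at optimized densities (Panc-1 750, FaDu 1000, Detroit 562 and MDA-MB-453 1500 cells/well), then treated with compound. Viability was read by CellTiter-Glo luminescence. Dose-response curves were fitted by four-parameter variable-slope non-linear regression.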

[4] = tested on: MDA-MB-453 (breast, carcinoma) cells; experiment: Cell viability assay, CellTiter-Glo (Example 21); type: cell-based, human; conditions: 72 h treatment
Summary of the method: as §1

[5] = tested on: Capan-1 (pancreas, adenocarcinoma) cells; experiment: Cell viability assay, CellTiter-Glo (Example 21); type: cell-based, human; conditions: 72 h treatment
Summary of the method: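 Viability of Capan-1 pancreatic adenocarcinoma cells was assessed using Promega's CellTiter-Glo® luminescence kit. Cells were plated at 1000 cells/well in white, flat-bottom 96 well plates, treated, then luminescence was recorded on a BioTek Synergy 2 reader. Dose-response curves were fitted in GraphPad Prism 8.4.2 with a four-parameter variable-slope non-linear regression.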

[6] = tested on: SCC-25 (tongue, squamous cell carcinoma) cells; experiment: Cell viability assay, CellTiter-Glo (Example 21); type: cell-based, human; conditions: 72 h treatment
Summary of the method: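 Cell viability of SCC-25 cells was assessed by CellTiter-Glo luminescence after compound exposure. Cells were plated at 1000 cells/well, a density chosen for their size and growth rate, on white flat-bottom 96 well plates. Signal was recorded on a microplate reader, and dose-response curves were fitted in GraphPad Prism by four-parameter variable-slope non-linear regression.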

[7] = tested on: Panc-1 (pancreas, carcinoma) cells; experiment: Cell viability assay, CellTiter-Glo (Example 21); type: cell-based, human; conditions: 72 h treatment
Summary of the method: as §1

[8] = tested on: LNCaP (prostate, carcinoma) cells; experiment: Cell viability assay, CellTiter-Glo (Example 21); type: cell-based, human; conditions: 72 h
Summary of the method: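 Flat-bottomed white 96 well plates received 1500 LNCaP cells per well, a density chosen to suit the cells' size and growth rate. Following compound treatment, viability was measured by CellTiter-Glo® luminescence per the manufacturer's protocol, with signal recorded on a BioTek Synergy 2 reader. GraphPad Prism 8.4.2 generated dose-response curves using a four-parameter, variable-slope non-linear regression model.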

[9] = tested on: EBC-1 (lung, squamous cell carcinoma) cells; experiment: Cell viability assay, CellTiter-Glo (Example 21); type: cell-based, human; conditions: 72 h treatment
Summary of the method: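 The CellTiter-Glo luminescent cell viability assay (Promega) was used to test compound effects on EBC-1 cells. Cells were plated at 1000 cells/well on white flat-bottom 96 well plates, treated, then read for luminescence on a microplate reader. Dose-response curves were fitted by four-parameter variable-slope non-linear regression.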

[10] = tested on: Detroit 562 (pharynx, carcinoma) cells; experiment: Cell viability assay, CellTiter-Glo (Example 21); type: cell-based, human; conditions: 72 h treatment
Summary of the method: as §1

[11] = tested on: MDA-MB-231 (breast, adenocarcinoma) cells; experiment: Cell viability assay, CellTiter-Glo (Example 21); type: cell-based, human; conditions: 72 h treatment
Summary of the method: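 Viability of MDA-MB-231 cells was quantified by luminescence using Promega's CellTiter-Glo® kit per manufacturer instructions. Cells, plated at a size- and growth-optimized density of 1500 cells/well in white flat-bottom 96 well plates, were treated and then read on a BioTek Synergy 2 reader; dose-response curves used four-parameter variable-slope non-linear regression in GraphPad Prism 8.4.2.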

[12] = tested on: PC-3 (prostate, adenocarcinoma) cells; experiment: Cell viability assay, CellTiter-Glo (Example 21); type: cell-based, human; conditions: 72 h treatment
Summary of the method: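 Cancer cell viability was assessed by luminescence using Promega's CellTiter-Glo® kit. PC-3 cells, plated at a density of 1000 cells/well in white flat-bottom 96 well plates, were exposed to test compounds, after which signals were measured on a microplate reader and dose-response curves fitted by four-parameter variable-slope non-linear regression in GraphPad Prism 8.4.2.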

[13] = tested on: MIA PaCa-2 (pancreas, carcinoma) cells; experiment: Cell viability assay, CellTiter-Glo (Example 21); type: cell-based, human; conditions: 72 h treatment
Summary of the method: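 Cell viability of MIA PaCa-2 cells was assessed by CellTiter-Glo® luminescence (Promega, Madison, WI, USA). Cells were plated at 1000 cells/well, a density chosen for their size and growth rate, in white flat-bottomed 96 well plates. After treatment, the signal was recorded on a BioTek microplate reader, and dose-response curves were fitted in GraphPad Prism 8.4.2 with a four-parameter variable-slope non-linear regression.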

[14] = tested on: H2228 lung cancer cell line; experiment: High-throughput screening, CellTiter-Glo cell viability assay at 100 nM; type: cell-based, human; conditions: Homo sapiens, NCI-H2228, HTS, compounds at 100 nM, 72 h, read-out: cytotoxicity expressed in IC50, H2228 (results of High throughput screening)
[15] = tested on: EBC-1 lung cancer cell line; experiment: as above; type: cell-based, human; conditions: Homo sapiens, EBC-1, HTS, compounds at 100 nM, 72 h, read-out: cytotoxicity expressed in IC50, EBC-1 (results of High throughput screening)

SMILES: O=C1C2=C(CCN(Cc3cc(F)cc(F)c3)C2)N2CCN=C2N1Cc1ccc(F)cc1 [I/7, 4-(4-Fluorobenzyl)-7-(3,5-difluorobenzyl)-2,4,6,7,8,9-hexahydroimidazo[1,2-a]pyrido[3,4-e]pyrimidin-5(1H)-one]
- IC50 [1]: 8 nM
- DU 145 cell viability ([2]; 3.7 nM): 64.1 ± 8.0 % of control
- DU 145 cell viability ([2]; 11.1 nM): 7.5 ± 0.6 % of control
- DU 145 cell viability ([2]; 100 nM): 7.2 ± 2.3 % of control
- DU 145 cell viability ([2]; 300 nM): 8.5 ± 2.4 % of control
- FaDu (pharynx, squamous cell carcinoma) cell viability (% of control) ([3]; 3.7 nM): 80.1 ± 13.3 % of control
- FaDu (pharynx, squamous cell carcinoma) cell viability (% of control) ([3]; 11.1 nM): 29.1 ± 5.6 % of control
- FaDu (pharynx, squamous cell carcinoma) cell viability (% of control) ([3]; 100 nM): 24.0 ± 3.8 % of control
- FaDu (pharynx, squamous cell carcinoma) cell viability (% of control) ([3]; 300 nM): 26.1 ± 4.5 % of control
- MDA-MB-453 (breast, carcinoma) cell viability (% of control) ([4]; 3.7 nM): 55.8 ± 6.5 % of control
- MDA-MB-453 (breast, carcinoma) cell viability (% of control) ([4]; 11.1 nM): 35.8 ± 1.3 % of control
- MDA-MB-453 (breast, carcinoma) cell viability (% of control) ([4]; 100 nM): 33.1 ± 1.1 % of control
- MDA-MB-453 (breast, carcinoma) cell viability (% of control) ([4]; 300 nM): 31.6 ± 0.9 % of control
- Capan-1 (pancreas, adenocarcinoma) cell viability (% of control) ([5]; 3.7 nM): 101.9 ± 3.8 % of control
- Capan-1 (pancreas, adenocarcinoma) cell viability (% of control) ([5]; 11.1 nM): 46.0 ± 7.5 % of control
- Capan-1 (pancreas, adenocarcinoma) cell viability (% of control) ([5]; 100 nM): 36.1 ± 2.8 % of control
- Capan-1 (pancreas, adenocarcinoma) cell viability (% of control) ([5]; 300 nM): 35.5 ± 3.3 % of control
- SCC-25 (tongue, squamous cell carcinoma) cell viability (% of control) ([6]; 3.7 nM): 88.7 ± 5.6 % of control
- SCC-25 (tongue, squamous cell carcinoma) cell viability (% of control) ([6]; 11.1 nM): 45.1 ± 4.7 % of control
- SCC-25 (tongue, squamous cell carcinoma) cell viability (% of control) ([6]; 100 nM): 35.1 ± 2.2 % of control
- SCC-25 (tongue, squamous cell carcinoma) cell viability (% of control) ([6]; 300 nM): 39.7 ± 2.7 % of control
- Panc-1 (pancreas, carcinoma) cell viability (% of control) ([7]; 3.7 nM): 108.6 ± 7.6 % of control
- Panc-1 (pancreas, carcinoma) cell viability (% of control) ([7]; 11.1 nM): 61.1 ± 3.4 % of control
- Panc-1 (pancreas, carcinoma) cell viability (% of control) ([7]; 100 nM): 60.0 ± 3.6 % of control
- Panc-1 (pancreas, carcinoma) cell viability (% of control) ([7]; 300 nM): 53.5 ± 0.6 % of control
- LNCaP cell viability ([8]; 3.7 nM): 45.6 ± 7.0 % of control
- LNCaP cell viability ([8]; 11.1 nM): 17.2 ± 1.9 % of control
- LNCaP cell viability ([8]; 100 nM): 13.1 ± 0.8 % of control
- LNCaP cell viability ([8]; 300 nM): 13.9 ± 1.0 % of control
- EBC-1 (lung, squamous cell carcinoma) cell viability (% of control) ([9]; 3.7 nM): 79.8 ± 4.1 % of control
- EBC-1 (lung, squamous cell carcinoma) cell viability (% of control) ([9]; 11.1 nM): 25.6 ± 0.1 % of control
- EBC-1 (lung, squamous cell carcinoma) cell viability (% of control) ([9]; 100 nM): 23.2 ± 0.9 % of control
- EBC-1 (lung, squamous cell carcinoma) cell viability (% of control) ([9]; 300 nM): 23.8 ± 0.6 % of control
- Detroit 562 (pharynx, carcinoma) cell viability (% of control) ([10]; 3.7 nM): 35.1 ± 5.8 % of control
- Detroit 562 (pharynx, carcinoma) cell viability (% of control) ([10]; 11.1 nM): 28.4 ± 4.2 % of control
- Detroit 562 (pharynx, carcinoma) cell viability (% of control) ([10]; 100 nM): 28.6 ± 13.6 % of control
- Detroit 562 (pharynx, carcinoma) cell viability (% of control) ([10]; 300 nM): 33.0 ± 4.8 % of control
- MDA-MB-231 (breast, adenocarcinoma) cell viability (% of control) ([11]; 3.7 nM): 99.6 ± 2.2 % of control
- MDA-MB-231 (breast, adenocarcinoma) cell viability (% of control) ([11]; 11.1 nM): 63.6 ± 4.4 % of control
- MDA-MB-231 (breast, adenocarcinoma) cell viability (% of control) ([11]; 100 nM): 58.6 ± 3.0 % of control
- MDA-MB-231 (breast, adenocarcinoma) cell viability (% of control) ([11]; 300 nM): 59.4 ± 3.0 % of control
- PC-3 (prostate, adenocarcinoma) cell viability (% of control) ([12]; 3.7 nM): 82.1 ± 1.6 % of control
- PC-3 (prostate, adenocarcinoma) cell viability (% of control) ([12]; 11.1 nM): 38.9 ± 2.1 % of control
- PC-3 (prostate, adenocarcinoma) cell viability (% of control) ([12]; 100 nM): 34.6 ± 3.0 % of control
- PC-3 (prostate, adenocarcinoma) cell viability (% of control) ([12]; 300 nM): 34.3 ± 3.4 % of control
- MIA PaCa-2 (pancreas, carcinoma) cell viability (% of control) ([13]; 3.7 nM): 87.4 ± 12.0 % of control
- MIA PaCa-2 (pancreas, carcinoma) cell viability (% of control) ([13]; 11.1 nM): 23.1 ± 6.3 % of control
- MIA PaCa-2 (pancreas, carcinoma) cell viability (% of control) ([13]; 100 nM): 18.5 ± 6.8 % of control
- MIA PaCa-2 (pancreas, carcinoma) cell viability (% of control) ([13]; 300 nM): 19.8 ± 8.6 % of control
- IC50 [14]: < 100 nM
- IC50 [15]: < 100 nM
